Measurements: patent US8445030B2 (priority 2009, dated 2013)
Entries after “also recorded” stand apart in the source; their conditions may differ. Like-named read-outs stand apart in the source and are kept apart here.

Columns and labels:
Microbes = assay: Microbial efficacy and duration of effects of components; settings: component of the spray of Example 1
microorganisms = assay: Antiseptic function of components in CaF2-based formulations (Examples 2-4)
[1] = same as normal skin (pH 5.4-5.5)
[2] = cited from earlier work
[3] = component of Example 2 wound gel
[4] = component of Example 3 hair gel
[5] = component of Example 4 hand disinfection spray

SMILES: [Ca+2].[F-].[F-] [CaF2 (calcium fluoride), calcium fluoride]
- Microbial Efficacy (Microbes): bactericide, virucide,; also recorded: fungicide
- persistent antiseptic action (microorganisms; [3]): log 3, persistent
- persistent antiseptic action (microorganisms; [4]): log 3, persistent
- persistent antiseptic action (microorganisms; [5]): log 3, persistent
- pH [1]: 5.4
- LD 50 Oral on Rats ([2]; oral, rats): 4500 mg/kg

SMILES: O=C(O)C=Cc1ccccc1 [Cinnamic acid]
- Duration of Effects (Microbes): short to long
- Microbial Efficacy (Microbes): bactericide, virucide,; also recorded: fungicide

SMILES: O=C(O)CC(O)(CC(=O)O)C(=O)O [Citric acid]
- Microbial Efficacy (Microbes): bactericide, virucide,; also recorded: fungicide

SMILES: CCO [Ethanol]
- fast acting antiseptic action (microorganisms; [3]): log 6, fast acting
- fast acting antiseptic action (microorganisms; [5]): log 6, fast acting

SMILES: OO [H2O2 (hydrogen peroxide), hydrogen peroxide]
- Duration of Effects (Microbes): short (short = within 60 sec up to max 5 min)
- Microbial Efficacy (Microbes): bactericide, virucide,; also recorded: fungicide
- LD 50 Oral on Rats ([2]; rat, in vivo, po): 2000 mg/kg

SMILES: CC(C)O [Isopropyl alcohol]
- fast acting antiseptic action (microorganisms; [4]): log 6, fast acting

SMILES: [Na+].[O-]Cl [NaOCl (Javel water), NaOCl]
- Microbial Efficacy (Microbes): bactericide, virucide,; also recorded: fungicide
- fast acting antiseptic action (microorganisms; [5]): log 6, fast acting
- LD 50 Oral on Rats ([2]; oral, rats): 2000 mg/kg

SMILES: O=C(O)[C@]1(O)C[C@@H](O)[C@@H](O)[C@H](O)C1 [Quinic acid]
- Microbial Efficacy (Microbes): bactericide, virucide,; also recorded: fungicide
- LD 50 Oral on Rats ([2]; rat, in vivo, po): >8000 mg/kg
